Measured values from ChEMBL document CHEMBL2440027, “Further SAR studies on bicyclic basic merbarone analogues as potent antiproliferative agents” (Bioorg Med Chem, 2013).

Columns and labels:
[1] = system: CAKI-1; assay: Growth inhibition of human CAKI-1 cells after 48 hrs by sulforhodamine B assay; type: functional; settings: CAKI-1, 48 h
[2] = system: UACC-257; assay: Growth inhibition of human UACC257 cells after 48 hrs by sulforhodamine B assay; type: functional; settings: UACC-257, 48 h; for CC50: read-out: LC50 (the source's name)
[3] = system: SK-MEL-28; assay: Growth inhibition of human SK-MEL-28 cells after 48 hrs by sulforhodamine B assay; type: functional; settings: SK-MEL-28, 48 h; for CC50: read-out: LC50 (the source's name)
[4] = system: HT-29; assay: Growth inhibition of human HT-29 cells assessed as cell growth at 10 uM after 48 hrs by sulforhodamine B assay relative to control; type: functional; settings: HT-29, 48 h, read-out: Activity
[5] = system: SF-295; assay: Growth inhibition of human SF295 cells after 48 hrs by sulforhodamine B assay; type: functional; settings: SF-295, 48 h; for CC50: read-out: LC50 (the source's name)
[6] = system: A549; assay: Growth inhibition of human A549/ATCC cells after 48 hrs by sulforhodamine B assay; type: functional; settings: A549, 48 h
[7] = system: SK-OV-3; assay: Growth inhibition of human SKOV3 cells after 48 hrs by sulforhodamine B assay; type: functional; settings: SK-OV-3, 48 h; for CC50: read-out: LC50 (the source's name)
[8] = system: CCRF-CEM; assay: Growth inhibition of human CCRF-CEM cells assessed as cell growth at 10 uM after 48 hrs by sulforhodamine B assay relative to control; type: functional; settings: read-out: Activity
[9] = system: OVCAR-3; assay: Growth inhibition of human OVCAR3 cells assessed as cell growth at 10 uM after 48 hrs by sulforhodamine B assay relative to control; type: functional; settings: OVCAR-3, 48 h, read-out: Activity
[10] = system: UACC-62; assay: Growth inhibition of human UACC62 cells after 48 hrs by sulforhodamine B assay; type: functional; settings: UACC-62, 48 h; for CC50: read-out: LC50 (the source's name)
[11] = system: OVCAR-4; assay: Growth inhibition of human OVCAR4 cells after 48 hrs by sulforhodamine B assay; type: functional; settings: OVCAR-4, 48 h
[12] = Growth inhibition of human HCC2998 cells assessed as cell growth at 10 uM after 48 hrs by sulforhodamine B assay relative to control; type: functional; settings: HCC 2998, 48 h, read-out: Activity
[13] = system: OVCAR-8; assay: Growth inhibition of human OVCAR8 cells assessed as cell growth at 10 uM after 48 hrs by sulforhodamine B assay relative to control; type: functional; settings: OVCAR-8, 48 h, read-out: Activity
[14] = system: MT4; assay: Cytotoxicity against human MT4 cells; type: functional, cell-based
[15] = system: MDA-MB-435; assay: Growth inhibition of human MDA-MB-435 cells after 48 hrs by sulforhodamine B assay; type: functional; settings: MDA-MB-435, 48 h; for CC50: read-out: LC50 (the source's name)
[16] = system: ACHN; assay: Growth inhibition of human ACHN cells after 48 hrs by sulforhodamine B assay; type: functional
[17] = system: HOP-92; assay: Growth inhibition of human HOP92 cells after 48 hrs by sulforhodamine B assay; type: functional; settings: HOP-92, 48 h
[18] = system: MDA-MB-468; assay: Growth inhibition of human MDA-MB-468 cells assessed as cell growth at 10 uM after 48 hrs by sulforhodamine B assay relative to control; type: functional; settings: MDA-MB-468, 48 h, read-out: Activity
[19] = system: NCI-H322M; assay: Growth inhibition of human NCI-H322M cells after 48 hrs by sulforhodamine B assay; type: functional; settings: for CC50: read-out: LC50 (the source's name)
[20] = system: COLO 205; assay: Growth inhibition of human COLO205 cells assessed as cell growth at 10 uM after 48 hrs by sulforhodamine B assay relative to control; type: functional; settings: COLO 205, 48 h, read-out: Activity
[21] = system: SNB-75; assay: Growth inhibition of human SNB75 cells assessed as cell growth at 10 uM after 48 hrs by sulforhodamine B assay relative to control; type: functional; settings: SNB-75, 48 h, read-out: Activity
[22] = system: 786-0; assay: Growth inhibition of human 786-0 cells assessed as cell growth at 10 uM after 48 hrs by sulforhodamine B assay relative to control; type: functional; settings: 786-0, 48 h, read-out: Activity
[23] = system: NCI-H322M; assay: Growth inhibition of human NCI-H322M cells assessed as cell growth at 10 uM after 48 hrs by sulforhodamine B assay relative to control; type: functional; settings: read-out: Activity
[24] = system: MDA-MB-231; assay: Growth inhibition of human MDA-MB-231 cells after 48 hrs by sulforhodamine B assay; type: functional; settings: MDA-MB-231, 48 h; for CC50: read-out: LC50 (the source's name)
[25] = system: SF-268; assay: Growth inhibition of human SF268 cells assessed as cell growth at 10 uM after 48 hrs by sulforhodamine B assay relative to control; type: functional; settings: SF-268, 48 h, read-out: Activity
[26] = system: KM12; assay: Growth inhibition of human KM12 cells after 48 hrs by sulforhodamine B assay; type: functional; settings: KM12, 48 h
[27] = system: HCT-116; assay: Growth inhibition of human HCT116 cells after 48 hrs by sulforhodamine B assay; type: functional; settings: HCT-116, 48 h
[28] = system: NCI-H23; assay: Growth inhibition of human NCI-H23 cells after 48 hrs by sulforhodamine B assay; type: functional; settings: NCI-H23, 48 h
[29] = system: A549; assay: Growth inhibition of human A549/ATCC cells assessed as cell growth at 10 uM after 48 hrs by sulforhodamine B assay relative to control; type: functional; settings: A549, 48 h, read-out: Activity
[30] = system: SW-620; assay: Growth inhibition of human SW620 cells after 48 hrs by sulforhodamine B assay; type: functional; settings: SW-620, 48 h
[31] = system: U-251; assay: Growth inhibition of human U251 cells after 48 hrs by sulforhodamine B assay; type: functional; settings: U-251, 48 h; for CC50: read-out: LC50 (the source's name)
[32] = system: OVCAR-3; assay: Growth inhibition of human OVCAR3 cells after 48 hrs by sulforhodamine B assay; type: functional; settings: OVCAR-3, 48 h
[33] = system: UO-31; assay: Growth inhibition of human UO31 cells assessed as cell growth at 10 uM after 48 hrs by sulforhodamine B assay relative to control; type: functional; settings: UO-31, 48 h, read-out: Activity
[34] = system: OVCAR-8; assay: Growth inhibition of human OVCAR8 cells after 48 hrs by sulforhodamine B assay; type: functional; settings: OVCAR-8, 48 h
[35] = read-out: LC50 (the source's name)

Compound: CN(C)CCNc1nc2c(c(=N)n1-c1ccccc1)c(=S)n(-c1ccccc1)c(=S)n2-c1ccccc1
- GI50 [1]: 3.6 µM
- LC50 [1]: 72 µM
- TGI [1]: 17.6 µM
- GI50 [2]: 1.7 µM
- TGI [2]: 3.6 µM
- CC50 [2]: 7.5 µM
- GI50 [3]: 0.6 µM
- TGI [3]: 2.1 µM
- CC50 [3]: 5.8 µM
- growth at 10 µM [4]: -35.7%
- GI50 [5]: 2.9 µM
- TGI [5]: 8.3 µM
- CC50 [5]: 51.1 µM
- GI50 [6]: 4.1 µM
- LC50 [6]: 70.4 µM
- TGI [6]: 18.6 µM
- GI50 [7]: 10.3 µM
- TGI [7]: 24.1 µM
- CC50 [7]: 56.7 µM
- growth at 10 µM [8]: -8.26%
- growth at 10 µM [9]: -48.7%
- GI50 [10]: 1.8 µM
- TGI [10]: 3.5 µM
- CC50 [10]: 6.6 µM
- GI50 [11]: 3.1 µM
- TGI [11]: 10.8 µM
- growth at 10 µM [12]: -39.6%
- growth at 10 µM [13]: 33.6%
- IC50 [14]: 8.4 µM
- GI50 [15]: 1.9 µM
- TGI [15]: 4.7 µM
- CC50 [15]: 22.1 µM
- GI50 [16]: 3.2 µM
- LC50 [16]: 34.1 µM
- TGI [16]: 11.3 µM
- GI50 [17]: 1.8 µM
- LC50 (concentration killing 50% of cells) [17]: 60.1 µM
- TGI [17]: 10.3 µM
- growth at 10 µM [18]: -34.6%
- GI50 [19]: 6.2 µM
- TGI [19]: 20.7 µM
- CC50 [19]: 53.8 µM
- growth at 10 µM [20]: 6.65%
- growth at 10 µM [21]: 79%
- growth at 10 µM [22]: -83.5%
- growth at 10 µM [23]: 58.5%
- GI50 [24]: 1.8 µM
- TGI [24]: 5.6 µM
- CC50 [24]: 24.7 µM
- growth at 10 µM [25]: 24%
- GI50 [26]: 4.3 µM
- LC50 [26]: 49.9 µM
- TGI [26]: 14.6 µM
- GI50 [27]: 2.7 µM
- TGI [27]: 16 µM
- GI50 [28]: 16.8 µM
- TGI [28]: 42.1 µM
- growth at 10 µM [29]: 35.4%
- GI50 [30]: 2.1 µM
- LC50 [30]: 18.8 µM
- TGI [30]: 5.1 µM
- GI50 [31]: 1.5 µM
- TGI [31]: 3.4 µM
- CC50 [31]: 7.8 µM
- GI50 [32]: 3 µM
- LC50 [32]: 45.4 µM
- TGI [32]: 12.5 µM
- growth at 10 µM [33]: 3.1%
- GI50 [34]: 4.1 µM
- TGI [34]: 15.7 µM
- CC50 [34, 35]: 58.7 µM

Compound: CCCCN(CCCC)CCCNc1nc2c(c(=N)n1-c1ccccc1)c(=S)n(-c1ccccc1)c(=S)n2-c1ccccc1
- GI50 [1]: 0.1 µM
- LC50 [1]: 3.1 µM
- TGI [1]: 0.8 µM
- GI50 [2]: 0.2 µM
- TGI [2]: 0.4 µM
- CC50 [2]: 0.9 µM
- GI50 [3]: 0.2 µM
- TGI [3]: 0.3 µM
- CC50 [3]: 0.7 µM
- growth at 10 µM [4]: -63.3%
- GI50 [5]: 1.2 µM
- TGI [5]: 2.7 µM
- CC50 [5]: 5.8 µM
- GI50 [6]: 0.7 µM
- LC50 [6]: 8.3 µM
- TGI [6]: 2.4 µM
- GI50 [7]: 1.5 µM
- TGI [7]: 2.9 µM
- CC50 [7]: 5.8 µM
- growth at 10 µM [8]: -78.4%
- growth at 10 µM [9]: -100%
- GI50 [10]: 0.3 µM
- TGI [10]: 1.2 µM
- CC50 [10]: 3.5 µM
- GI50 [11]: 0.6 µM
- TGI [11]: 1.9 µM
- CC50 [11, 35]: 4.4 µM
- growth at 10 µM [12]: -91.5%
- growth at 10 µM [13]: -36.1%
- IC50 [14]: 1.6 µM
- GI50 [15]: 0.2 µM
- TGI [15]: 0.5 µM
- CC50 [15]: 1.5 µM
- GI50 [16]: 0.5 µM
- LC50 [16]: 4.1 µM
- TGI [16]: 1.6 µM
- GI50 [17]: 0.2 µM
- LC50 (concentration killing 50% of cells) [17]: 3.5 µM
- TGI [17]: 0.8 µM
- growth at 10 µM [18]: -89.9%
- GI50 [19]: 1.4 µM
- TGI [19]: 3.2 µM
- CC50 [19]: 7.4 µM
- growth at 10 µM [20]: -74.1%
- growth at 10 µM [21]: -94.2%
- growth at 10 µM [22]: -100%
- growth at 10 µM [23]: -57.8%
- GI50 [24]: 0.3 µM
- TGI [24]: 0.9 µM
- CC50 [24]: 3 µM
- growth at 10 µM [25]: -94%
- GI50 [26]: 0.4 µM
- LC50 [26]: 3.8 µM
- TGI [26]: 1.5 µM
- GI50 [27]: 0.3 µM
- TGI [27]: 1.1 µM
- CC50 [27, 35]: 3.4 µM
- GI50 [28]: 1.6 µM
- LC50 (concentration killing 50% of cells) [28]: 8.4 µM
- TGI [28]: 3.4 µM
- growth at 10 µM [29]: -38.4%
- GI50 [30]: 0.4 µM
- LC50 [30]: 3.7 µM
- TGI [30]: 1.4 µM
- GI50 [31]: 0.3 µM
- TGI [31]: 1.2 µM
- CC50 [31]: 3.5 µM
- GI50 [32]: 0.8 µM
- LC50 [32]: 4.6 µM
- TGI [32]: 2.1 µM
- growth at 10 µM [33]: -80.9%
- GI50 [34]: 0.9 µM
- TGI [34]: 2.7 µM
